Like-named read-outs stand apart in the source and are kept apart here.

The test system of series [1] is patients with moderate to severe RLS/PMLS. Briefly: IRLSS score in two patients with RLS/PLMS, Example 1. It is filed as in vivo. An excerpt: (§1) RLS and PLMS are typically diagnosed by patient history and standardized questionnaires as well as by polysomnographic evaluation.
For series [2] the test system is unchanged. The following applies: pramipexole 0.35 mg once daily evening dose for 21 days.
Experimental: (§3) Due to remaining RLS complaints iron sucrose therapy in the dosage 500 mg i.v. twice, was introduced during one week (FIG. 1; C).
The test system is the same in series [3]. The following applies: both patients; pramipexole 0.35 mg once daily for 21 days.
Experimental: as §3
Series [4] has as its system patient with clinical symptoms of RLS. Briefly: IRLSS score in a third patient with RLS, Example 2. Format: in vivo. The following applies: iron dextran, after discontinuation of dopaminergic treatment (FIG. 2; E). On the procedure:
as §1
(§2) A subsequent clinical observational study included a patient with clinical symptoms of RLS and an IRLSS score of 26 on the diagnostic evaluation under treatment with L-dopa (levodopa) and carbidopa (Sinernet®, fixed combination dosage of 100 mg L-dopa and 25 mg carbidopa) (FIG. 2; A). The patient needed to be treated with altogether three tablets per evening in order to obtain acceptable symptom relief (IRLSS score 4. FIG. 2; B). […] An attempt to discontinue dopaminergic treatment altogether failed. Following this discontinuation there was a substantial symptom relapse (IRLSS score 15. FIG. 2; E).

The test system is the same in series [5]. In words: Side effects and augmentation in a third patient with RLS, Example 2. Format: in vivo. The following applies: iron dextran 200 mg daily. On the procedure:
as §2

Turning to iron sucrose, the IRLSS score in series [1] (patient with baseline IRLSS 28, after iron sucrose infusions, pramipexole discontinued for one week (FIG. 1; D)) is recorded as 18; in series [1] (patient with baseline IRLSS 30, after iron sucrose infusions, pramipexole discontinued for one week (FIG. 1; D)), 14.

Consider `CCCN[C@H]1CCc2nc(N)sc2C1` [Pramipexole], for which the IRLSS score in series [1] (patient with baseline IRLSS 28, pramipexole 0.35 mg once daily, day 21 (FIG. 1; B)) was determined as 17; in series [1] (patient with baseline IRLSS 30, pramipexole 0.35 mg once daily, day 21 (FIG. 1; B)), 15. For the same compound, the results for the PLMI in series [2] (patient with baseline PLMI 3) and in series [2] (patient with baseline PLMI 17) were 0 and 2, respectively. Moreover, the side effects entry in series [3] is recorded as “No side effects were reported”.

On to iron dextran, for which the IRLSS score in series [4] was 15. Further, the adverse effects result in series [5] is given as “did not cause any adverse effects”.
